Several values for one entry are separate records, joined by “and”; a condition that tells them apart may be missing. Equal entries are not always repeated.
Legend:
Format in all cases: biochemical
glucoamylase = experiment: Action of glucoamylase on the modified oligosaccharide
[1] = biological target: T1, human pancreatic α-amylase (HPA) (Homo sapiens, UniProt P04746); experiment: Hydrolysis rate of substrates by α-amylase (relative to G5P); conditions: substrate 1.0 mM, pH 7, value of G5P taken as 1
T1 sequence (P04746 16-511): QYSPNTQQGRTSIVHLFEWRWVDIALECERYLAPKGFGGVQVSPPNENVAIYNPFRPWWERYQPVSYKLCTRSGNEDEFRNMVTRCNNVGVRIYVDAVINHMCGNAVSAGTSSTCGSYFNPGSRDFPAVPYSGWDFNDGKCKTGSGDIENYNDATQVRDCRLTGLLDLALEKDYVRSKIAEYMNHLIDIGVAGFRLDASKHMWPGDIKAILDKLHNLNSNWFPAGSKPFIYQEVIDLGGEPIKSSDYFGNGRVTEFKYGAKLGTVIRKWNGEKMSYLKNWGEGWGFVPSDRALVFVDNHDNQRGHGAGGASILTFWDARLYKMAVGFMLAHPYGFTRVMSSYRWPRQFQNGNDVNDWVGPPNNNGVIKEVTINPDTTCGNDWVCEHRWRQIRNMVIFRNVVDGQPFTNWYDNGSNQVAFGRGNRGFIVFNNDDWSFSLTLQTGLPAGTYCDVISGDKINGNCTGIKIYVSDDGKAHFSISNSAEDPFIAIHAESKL
Description: (§1) The above-mentioned advantages can be shown by using the following oligosaccharides: [drawing 6] n = 2: BG4P n = 3: BG5P (the present invention) n = 4: BG6P n = 5: BG7P [drawing 7] n = 2: G4P n = 3: G5P (standard) n = 4: G6P n = 5: G7P [drawing 8] n = 2: BDG4P n = 3: BDG5P n = 4: BDG6P n = 5: BDG7P The hydrolysis rate is measured by using human pancreatic α-amylase (HPA) or human salivary α-amylase (HSA) for each substrate (1.0 mM) at pH 7, and evaluating by means of relative values by taking the value of G5P as 1.

[2] = biological target: T2, human salivary α-amylase (HSA) (Homo sapiens, UniProt P0DUB6); experiment: as above; conditions: substrate 1.0 mM, pH 7, value of G5P taken as 1
T2 sequence (P0DUB6 16-511): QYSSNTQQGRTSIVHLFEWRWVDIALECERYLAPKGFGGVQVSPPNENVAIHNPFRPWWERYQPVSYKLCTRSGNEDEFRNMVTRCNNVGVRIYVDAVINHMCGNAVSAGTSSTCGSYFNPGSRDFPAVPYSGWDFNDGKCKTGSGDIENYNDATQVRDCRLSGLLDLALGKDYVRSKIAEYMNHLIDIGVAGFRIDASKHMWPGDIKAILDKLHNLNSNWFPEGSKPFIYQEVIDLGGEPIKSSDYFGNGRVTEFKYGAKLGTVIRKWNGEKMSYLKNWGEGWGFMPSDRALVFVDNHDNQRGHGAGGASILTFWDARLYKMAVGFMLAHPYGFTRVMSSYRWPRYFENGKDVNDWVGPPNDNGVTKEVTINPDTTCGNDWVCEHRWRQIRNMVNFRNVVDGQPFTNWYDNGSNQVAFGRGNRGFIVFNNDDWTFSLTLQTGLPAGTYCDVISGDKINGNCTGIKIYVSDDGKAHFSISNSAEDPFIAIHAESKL
Description: as §1

HPA [3] = biological target: T3, HPA (Homo sapiens, UniProt P04746); experiment: Km determination (Lineweaver-Burk plot, products measured by HPLC); conditions: 50 mM BES/NaOH buffer pH 7.6, 37°C, 5 min
T3 sequence (P04746 16-511): T1 sequence (P04746 16-511)
Description: The amounts of the products were measured with HPLC.

HPA [4] = biological target: T3, HPA; experiment: Binding mode (distribution of hydrolysis products) by HPLC; conditions: for Hydrolysis product G2P: share of product G2P; for Hydrolysis product G3P: share of product G3P; for Hydrolysis product G4P: share of product G4P; for Hydrolysis product GP: share of product GP
Description: (§2) The binding mode of each substrate were measured with high-performance liquid chromatography (HPLC) as described above.

HSA = biological target: T4, HSA (Homo sapiens, UniProt P0DUB6); experiment: as above; conditions: for Hydrolysis product G2P: share of product G2P; for Hydrolysis product G3P: share of product G3P; for Hydrolysis product G4P: share of product G4P; for Hydrolysis product GP: share of product GP
T4 sequence (P0DUB6 16-511): T2 sequence (P0DUB6 16-511)
Description: as §2

Row | SMILES | hydrolysis rate (relative value) [1] | hydrolysis rate (relative value) [2] | Km (HPA [3]) | Hydrolysis product G2P (HPA [4]) [%] | Hydrolysis product G3P (HPA [4]) [%] | Hydrolysis product G4P (HPA [4]) [%] | Hydrolysis product GP (HPA [4]) [%] | Hydrolysis product G2P (HSA) [%] | Hydrolysis product G3P (HSA) [%] | Hydrolysis product G4P (HSA) [%] | Hydrolysis product GP (HSA) [%] | Hydrolysis product (result in words) (HPA [4]) | Hydrolysis product (result in words) (HSA) | action of glucoamylase on the substrate (glucoamylase)
1 | O=[N+]([O-])c1ccc(O[C@H]2O[C@H](CO)[C@@H](O[C@H]3O[C@H](CO)[C@@H](O[C@H]4O[C@H](CO)[C@@H](O[C@H]5O[C@H](CO)[C@@H](O[C@H]6O[C@H](CBr)[C@@H](O)[C@H](O)[C@H]6O)[C@H](O)[C@H]5O)[C@H](O)[C@H]4O)[C@H](O)[C@H]3O)[C@H](O)[C@H]2O)cc1 [BrG5P] |  |  |  |  |  |  |  |  |  |  |  |  |  | not acted by glucoamylase
2 | O=[N+]([O-])c1ccc(O[C@H]2O[C@H](CO)[C@@H](O[C@H]3O[C@H](CO)[C@@H](O[C@H]4O[C@H](CO)[C@@H](O[C@H]5O[C@H](CO)[C@@H](O[C@H]6O[C@H](COCc7ccccc7)[C@@H](O)[C@H](O)[C@H]6O)[C@H](O)[C@H]5O)[C@H](O)[C@H]4O)[C@H](O)[C@H]3O)[C@H](O)[C@H]2O)cc1 [BG5P, p-nitrophenyl O-(6-O-benzyl)-α-D-glycopyranosyl-(1→4)-O-α-D-glucopyranosyl-(1→4)-O-α-D-glucopyranosyl-(1→4)-O-α-D-glucopyranosyl-(1→4)-α-D-glucopyranoside] | 1.4 | 1.4 | 110 µM and 106 µM | 95 | 0 | 0 | 5 | 98 | 0 | 0 | 2 |  |  | not acted by glucoamylase
3 | O=[N+]([O-])c1ccc(O[C@H]2O[C@H](CO)[C@@H](O[C@H]3O[C@H](CO)[C@@H](O[C@H]4O[C@H](CO)[C@@H](O[C@H]5O[C@H](CO)[C@@H](O[C@H]6O[C@H](CO)[C@@H](O)[C@H](O)[C@H]6O)[C@H](O)[C@H]5O)[C@H](O)[C@H]4O)[C@H](O)[C@H]3O)[C@H](O)[C@H]2O)cc1 [Substrate G5P] | 1.0 | 1.0 | 360 µM and 358 µM | 73 | 12 | 0 | 15 | 83 | 11 | 0 | 6 |  |  | 
4 | O=[N+]([O-])c1ccc(O[C@H]2O[C@H](CO)[C@@H](O[C@H]3O[C@H](CO)[C@@H](O[C@H]4O[C@H](CO)[C@@H](O[C@H]5O[C@H](CO)[C@@H](O[C@H]6O[C@@H]7COC(c8ccccc8)O[C@H]7[C@H](O)[C@H]6O)[C@H](O)[C@H]5O)[C@H](O)[C@H]4O)[C@H](O)[C@H]3O)[C@H](O)[C@H]2O)cc1 (stereo partly drawn) [BDG5P] | 0 | 0 |  |  |  |  |  |  |  |  |  | Not hydrolyzed | Not hydrolyzed | 

More lines, main results first:

Row | hydrolysis rate (relative value) [1] | hydrolysis rate (relative value) [2] | Km (HPA [3]) | Hydrolysis product G2P (HPA [4]) [%] | Hydrolysis product G3P (HPA [4]) [%] | Hydrolysis product G4P (HPA [4]) [%] | Hydrolysis product GP (HPA [4]) [%] | Hydrolysis product G2P (HSA) [%] | Hydrolysis product G3P (HSA) [%] | Hydrolysis product G4P (HSA) [%] | Hydrolysis product GP (HSA) [%] | Hydrolysis product (result in words) (HPA [4]) | Hydrolysis product (result in words) (HSA) | SMILES | action of glucoamylase on the substrate (glucoamylase)
5 | 1.8 | 1.8 |  | 14 | 30 | 55 | 1 | 8 | 30 | 60 | 2 |  |  | O=[N+]([O-])c1ccc(O[C@H]2O[C@H](CO)[C@@H](O[C@H]3O[C@H](CO)[C@@H](O[C@H]4O[C@H](CO)[C@@H](O[C@H]5O[C@H](CO)[C@@H](O[C@H]6O[C@H](CO)[C@@H](O[C@H]7O[C@H](CO)[C@@H](O[C@H]8O[C@H](CO)[C@@H](O)[C@H](O)[C@H]8O)[C@H](O)[C@H]7O)[C@H](O)[C@H]6O)[C@H](O)[C@H]5O)[C@H](O)[C@H]4O)[C@H](O)[C@H]3O)[C@H](O)[C@H]2O)cc1 [Substrate G7P] | 
6 | 1.1 | 1.0 | 86 µM and 88.1 µM | 48 | 22 | 13 | 7 | 55 | 25 | 15 | 5 |  |  | O=[N+]([O-])c1ccc(O[C@H]2O[C@H](CO)[C@@H](O[C@H]3O[C@H](CO)[C@@H](O[C@H]4O[C@H](CO)[C@@H](O[C@H]5O[C@H](CO)[C@@H](O[C@H]6O[C@H](CO)[C@@H](O[C@H]7O[C@H](CO)[C@@H](O[C@H]8O[C@@H]9COC(c%10ccccc%10)O[C@H]9[C@H](O)[C@H]8O)[C@H](O)[C@H]7O)[C@H](O)[C@H]6O)[C@H](O)[C@H]5O)[C@H](O)[C@H]4O)[C@H](O)[C@H]3O)[C@H](O)[C@H]2O)cc1 (stereo partly drawn) [BDG7P] | 
7 | 1.5 | 1.5 |  | 20 | 38 | 40 | 2 | 15 | 38 | 45 | 2 |  |  | O=[N+]([O-])c1ccc(O[C@H]2O[C@H](CO)[C@@H](O[C@H]3O[C@H](CO)[C@@H](O[C@H]4O[C@H](CO)[C@@H](O[C@H]5O[C@H](CO)[C@@H](O[C@H]6O[C@H](CO)[C@@H](O[C@H]7O[C@H](CO)[C@@H](O[C@H]8O[C@H](COCc9ccccc9)[C@@H](O)[C@H](O)[C@H]8O)[C@H](O)[C@H]7O)[C@H](O)[C@H]6O)[C@H](O)[C@H]5O)[C@H](O)[C@H]4O)[C@H](O)[C@H]3O)[C@H](O)[C@H]2O)cc1 [BG7P] | 
8 | 1.7 | 1.7 |  | 22 | 76 | 0 | 2 | 40 | 53 | 0 | 7 |  |  | O=[N+]([O-])c1ccc(O[C@H]2O[C@H](CO)[C@@H](O[C@H]3O[C@H](CO)[C@@H](O[C@H]4O[C@H](CO)[C@@H](O[C@H]5O[C@H](CO)[C@@H](O[C@H]6O[C@H](CO)[C@@H](O[C@H]7O[C@H](CO)[C@@H](O)[C@H](O)[C@H]7O)[C@H](O)[C@H]6O)[C@H](O)[C@H]5O)[C@H](O)[C@H]4O)[C@H](O)[C@H]3O)[C@H](O)[C@H]2O)cc1 [Substrate G6P] | 

— patent publication EP0252525B1, “Alpha-amylase assay using modified oligosaccharide and process for producing said modified oligosaccharide” (WAKO PURE CHEMICAL INDUSTRIES, LTD, priority 1986, dated 1988)
